Results taken from the Kinase Knowledgebase extract (Sharma et al. 2016).

Target: CDK2 (human) (UniProt P24941)
Assay: Enzyme Assay
Conditions: for inhibition: concentration not given here

| inhibition | Ki | SMILES |
| --- | --- | --- |
| 6% | – | CN(C)c1ccccc1C(=O)N1CCC(Nc2nc(N)c(C(=O)c3c(F)cccc3F)s2)CC1 |
| 61% | – | COc1ccc2oc(C(=O)N3CCC(Nc4nc(N)c(C(=O)c5c(F)cccc5F)s4)CC3)cc2c1 |
| 78% | – | Cc1ccc(C(=O)/C=C/C(=O)N2CCC(Nc3nc(N)c(C(=O)c4c(F)cccc4F)s3)CC2)cc1 |
| 75% | – | CCOc1cccc(C(=O)N2CCC(Nc3nc(N)c(C(=O)c4c(F)cccc4F)s3)CC2)c1 |
| – | 360 nM | Nc1nc(NC2CN(C(=O)c3ccc([N+](=O)[O-])cc3)C2)sc1C(=O)c1c(F)cccc1F |
| 28% | – | Nc1nc(NC2CCN(C(=O)c3cccnc3)CC2)sc1C(=O)c1c(F)cccc1F |
| 61% | – | Nc1nc(NC2CCN(C(=O)[C@@H](O)Cc3ccccc3)CC2)sc1C(=O)c1c(F)cccc1F |
| 58% | – | Nc1nc(NC2CCN(C(=O)c3cnccn3)CC2)sc1C(=O)c1c(F)cccc1F |
| 65% | – | Nc1nc(NC2CCN(C(=O)CCCc3cccs3)CC2)sc1C(=O)c1c(F)cccc1F |
| 83% | – | Nc1nc(NC2CCN(C(=O)COc3ccc(F)cc3)CC2)sc1C(=O)c1c(F)cccc1F |
| 18% | – | COc1ccc(Cl)cc1C(=O)N1CCC(Nc2nc(N)c(C(=O)c3c(F)cccc3F)s2)CC1 |
| 60% | – | Cc1ccc(C(=O)N2CCC(Nc3nc(N)c(C(=O)c4c(F)cccc4F)s3)CC2)cc1 |
| 85% | – | CC(C)c1ccc(CC(=O)N2CCC(Nc3nc(N)c(C(=O)c4c(F)cccc4F)s3)CC2)cc1 |
| 23% | – | CN(C)c1ccc(NC(=O)N2CCC(Nc3nc(N)c(C(=O)c4c(F)cccc4F)s3)CC2)cc1 |
| 72% | – | Nc1nc(NC2CCN(C(=O)c3ccc4[nH]cnc4c3)CC2)sc1C(=O)c1c(F)cccc1F |
| -12% | – | COC(=O)C(=O)N1CCC(Nc2nc(N)c(C(=O)c3c(F)cccc3F)s2)CC1 |
| 56% | – | Cc1ccccc1CC(=O)N1CCC(Nc2nc(N)c(C(=O)c3c(F)cccc3F)s2)CC1 |
| -13% | – | CCOC(=O)C(=O)N1CCC(Nc2nc(N)c(C(=O)c3c(F)cccc3F)s2)CC1 |
| 86% | – | Cc1ccnc(SCC(=O)N2CCC(Nc3nc(N)c(C(=O)c4c(F)cccc4F)s3)CC2)n1 |
| 23% | – | Nc1nc(NC2CCN(C(=O)CCCS)CC2)sc1C(=O)c1c(F)cccc1F |
| 40% | – | COc1ncccc1C(=O)N1CCC(Nc2nc(N)c(C(=O)c3c(F)cccc3F)s2)CC1 |

| inhibition | Ki | SMILES |
| --- | --- | --- |
| 52% | – | C#CCCC(=O)N1CCC(Nc2nc(N)c(C(=O)c3c(F)cccc3F)s2)CC1 |
| 40% | – | CSc1ccccc1C(=O)N1CCC(Nc2nc(N)c(C(=O)c3c(F)cccc3F)s2)CC1 |
| 84% | – | N#C/C(=C\c1cccc(O)c1)C(=O)N1CCC(Nc2nc(N)c(C(=O)c3c(F)cccc3F)s2)CC1 |
| 60% | – | Nc1nc(NC2CCN(C(=O)COc3ccc([N+](=O)[O-])cc3)CC2)sc1C(=O)c1c(F)cccc1F |
| 57% | – | Nc1nc(NC2CCN(C(=O)CNc3ccccc3)CC2)sc1C(=O)c1c(F)cccc1F |
| 47% | – | COc1ccc(C(=O)N2CCC(Nc3nc(N)c(C(=O)c4c(F)cccc4F)s3)CC2)cc1Cl |
| 61% | – | Nc1nc(NC2CCN(C(=O)CCOc3ccc(F)cc3)CC2)sc1C(=O)c1c(F)cccc1F |
| 36% | – | Cc1c(F)cccc1C(=O)N1CCC(Nc2nc(N)c(C(=O)c3c(F)cccc3F)s2)CC1 |
| 48% | – | Nc1nc(NC2CCN(C(=O)Cc3ccccc3O)CC2)sc1C(=O)c1c(F)cccc1F |
| 44% | – | Nc1nc(NC2CCN(C(=O)Cc3cccc(O)c3)CC2)sc1C(=O)c1c(F)cccc1F |
| 52% | – | Cc1ncccc1C(=O)N1CCC(Nc2nc(N)c(C(=O)c3c(F)cccc3F)s2)CC1 |
| 73% | – | COCCOCC(=O)N1CCC(Nc2nc(N)c(C(=O)c3c(F)cccc3F)s2)CC1 |
| 70% | – | Cc1cccc(OCC(=O)N2CCC(Nc3nc(N)c(C(=O)c4c(F)cccc4F)s3)CC2)c1 |
| 52% | – | Cc1ccc(OCC(=O)N2CCC(Nc3nc(N)c(C(=O)c4c(F)cccc4F)s3)CC2)cc1C |
| 75% | – | Nc1nc(NC2CCN(C(=O)CSc3ccccc3F)CC2)sc1C(=O)c1c(F)cccc1F |
| 25% | – | CC(=O)OCC(=O)N1CCC(Nc2nc(N)c(C(=O)c3c(F)cccc3F)s2)CC1 |
| 31% | – | Cc1ccoc1C(=O)N1CCC(Nc2nc(N)c(C(=O)c3c(F)cccc3F)s2)CC1 |
| 34% | – | Nc1nc(NC2CCN(C(=O)C(O)Cc3ccc(O)cc3)CC2)sc1C(=O)c1c(F)cccc1F (stereo unspecified) |
| 33% | – | CSc1ncccc1C(=O)N1CCC(Nc2nc(N)c(C(=O)c3c(F)cccc3F)s2)CC1 |
| 37% | – | COc1ccc(C2(C(=O)N3CCC(Nc4nc(N)c(C(=O)c5c(F)cccc5F)s4)CC3)CC2)cc1 |
| 36% | – | Cc1ccc(CCC(=O)N2CCC(Nc3nc(N)c(C(=O)c4c(F)cccc4F)s3)CC2)cc1 |

Further lines, the compound ahead of its results:

| SMILES | inhibition | Ki |
| --- | --- | --- |
| CC(C)(O)C(=O)N1CCC(Nc2nc(N)c(C(=O)c3c(F)cccc3F)s2)CC1 | 50% | – |
| CC1(C(=O)N2CCC(Nc3nc(N)c(C(=O)c4c(F)cccc4F)s3)CC2)CCCCC1 | -5% | – |
| Nc1nc(NC2CCN(S(=O)(=O)c3ccc(Oc4ccncc4)cc3)CC2)sc1C(=O)c1c(F)cccc1F | -28% | – |
| Nc1nc(NC2CCN(C(=O)[C@H](O)C3CCCCC3)CC2)sc1C(=O)c1c(F)cccc1F | 25% | – |
| Nc1nc(NC2CCN(C(=O)C3CCCO3)CC2)sc1C(=O)c1c(F)cccc1F (stereo unspecified) | 27% | – |
| Cc1nc(C)c(C(=O)N2CCC(Nc3nc(N)c(C(=O)c4c(F)cccc4F)s3)CC2)s1 | 67% | – |
| Cc1cc(C(=O)N2CCC(Nc3nc(N)c(C(=O)c4c(F)cccc4F)s3)CC2)n(C(C)(C)C)n1 | 59% | – |
| CCOC(=O)CCC(=O)N1CCC(Nc2nc(N)c(C(=O)c3c(F)cccc3F)s2)CC1 | 54% | – |
| COc1cc(N)ccc1/C=C/C(=O)N1CCC(Nc2nc(N)c(C(=O)c3c(F)cccc3F)s2)CC1 | 56% | – |
| COC1CCC(C(=O)N2CCC(Nc3nc(N)c(C(=O)c4c(F)cccc4F)s3)CC2)CC1 (stereo unspecified) | 54% | – |
| CN1CC(C(=O)N2CCC(Nc3nc(N)c(C(=O)c4c(F)cccc4F)s3)CC2)CC1=O (stereo unspecified) | 41% | – |
| Nc1nc(NC2CCN(C(=O)[C@@H](O)C3CCCCC3)CC2)sc1C(=O)c1c(F)cccc1F | 51% | – |
| Cc1ccc(C(C)C)c(C(=O)N2CCC(Nc3nc(N)c(C(=O)c4c(F)cccc4F)s3)CC2)c1O | 30% | – |
| Cc1cc(C)c(/C=C/C(=O)N2CCC(Nc3nc(N)c(C(=O)c4c(F)cccc4F)s3)CC2)cc1C | 76% | – |
| CC(=O)O[C@@H](C(=O)N1CCC(Nc2nc(N)c(C(=O)c3c(F)cccc3F)s2)CC1)c1ccccc1 | 25% | – |
| CCCCc1ccc(C(=O)N2CCC(Nc3nc(N)c(C(=O)c4c(F)cccc4F)s3)CC2)nc1 | -45% | – |
| Cc1cc(C)c(S(=O)(=O)N2CCC(Nc3nc(N)c(C(=O)c4c(F)cccc4F)s3)CC2)c(C)c1 | -14% | – |
| CN(C)CCNc1ccc(S(=O)(=O)N2CCC(Nc3nc(N)c(C(=O)c4c(F)cccc4F)s3)CC2)cn1 | – | 1.2 nM |
| Nc1nc(NC2CCN(C(=O)CCCCCc3ccccc3)CC2)sc1C(=O)c1c(F)cccc1F | 12% | – |
| CC(=O)/C=C/C(=O)N1CCC(Nc2nc(N)c(C(=O)c3c(F)cccc3F)s2)CC1 | 5% | 500 nM |
| N#C/C(=C\c1ccccc1)C(=O)N1CCC(Nc2nc(N)c(C(=O)c3c(F)cccc3F)s2)CC1 | 67% | – |
| COc1cccc2cc(C(=O)N3CCC(Nc4nc(N)c(C(=O)c5c(F)cccc5F)s4)CC3)oc12 | 77% | – |
| CCCCCCCC(=O)N1CCC(Nc2nc(N)c(C(=O)c3c(F)cccc3F)s2)CC1 | 53% | – |
| Nc1nc(NC2CCN(C(=O)c3ccccc3-n3cccc3)CC2)sc1C(=O)c1c(F)cccc1F | 50% | – |

| SMILES | inhibition | Ki |
| --- | --- | --- |
| Nc1nc(NC2CCN(C(=O)c3ccccc3COC(=O)c3ccccc3)CC2)sc1C(=O)c1c(F)cccc1F | -9% | – |
| C=CCC(C)(C)C(=O)N1CCC(Nc2nc(N)c(C(=O)c3c(F)cccc3F)s2)CC1 | 14% | – |
| CCCCCCCC(CC)C(=O)N1CCC(Nc2nc(N)c(C(=O)c3c(F)cccc3F)s2)CC1 (stereo unspecified) | 25% | – |
| COC(=O)CCCCC(=O)N1CCC(Nc2nc(N)c(C(=O)c3c(F)cccc3F)s2)CC1 | -5% | – |
| Nc1nc(NC2CCN(C(=O)c3csnn3)CC2)sc1C(=O)c1c(F)cccc1F | 68% | – |
| C=CCC(C)C(=O)N1CCC(Nc2nc(N)c(C(=O)c3c(F)cccc3F)s2)CC1 (stereo unspecified) | 21% | – |
| CC(C)CC(O)C(=O)N1CCC(Nc2nc(N)c(C(=O)c3c(F)cccc3F)s2)CC1 (stereo unspecified) | 57% | – |
| CCCCC(CC)COC(=O)N1CCC(Nc2nc(N)c(C(=O)c3c(F)cccc3F)s2)CC1 (stereo unspecified) | -42% | – |
| C/C=C/C(=O)N1CCC(Nc2nc(N)c(C(=O)c3c(F)cccc3F)s2)CC1 | -9% | – |
| Nc1nc(NC2CCN(C(=O)/C=C/c3ccc4c(c3)CCC4)CC2)sc1C(=O)c1c(F)cccc1F | 48% | – |
| COc1cscc1C(=O)N1CCC(Nc2nc(N)c(C(=O)c3c(F)cccc3F)s2)CC1 | 58% | – |
| CC(=O)O[C@H](C(=O)N1CCC(Nc2nc(N)c(C(=O)c3c(F)cccc3F)s2)CC1)c1ccccc1 | 41% | – |
| Cc1ccc2[nH]c(C(=O)N3CCC(Nc4nc(N)c(C(=O)c5c(F)cccc5F)s4)CC3)cc2c1 | 54% | – |
| CCCCCCC(=O)N1CCC(Nc2nc(N)c(C(=O)c3c(F)cccc3F)s2)CC1 | 59% | – |
| Nc1nc(NC2CCN(C(=O)C3(c4ccccc4)CC3)CC2)sc1C(=O)c1c(F)cccc1F | -2% | – |
| Nc1nc(NC2CCN(C(=O)c3cc(F)cc(F)c3)CC2)sc1C(=O)c1c(F)cccc1F | 80% | – |
| CC(C)[C@@H](O)C(=O)N1CCC(Nc2nc(N)c(C(=O)c3c(F)cccc3F)s2)CC1 | 34% | – |
| Cc1c(C(=O)N2CCC(Nc3nc(N)c(C(=O)c4c(F)cccc4F)s3)CC2)oc2ccccc12 | 38% | – |
| Nc1nc(NC2CCN(C(=O)N3CCCC3)CC2)sc1C(=O)c1c(F)cccc1F | -10% | – |
| Nc1nc(NC2CCN(C(=O)c3ccc4[nH]nnc4c3)CC2)sc1C(=O)c1c(F)cccc1F | 49% | – |
| CN(C)C(=O)N1CCC(Nc2nc(N)c(C(=O)c3c(F)cccc3F)s2)CC1 | -43% | – |
| CC(C)C(C(=O)N1CCC(Nc2nc(N)c(C(=O)c3c(F)cccc3F)s2)CC1)c1ccccc1 (stereo unspecified) | 29% | – |
| Nc1nc(NC2CCN(C(=O)C3COc4ccccc4O3)CC2)sc1C(=O)c1c(F)cccc1F (stereo unspecified) | 58% | – |
| CC(C)=CC(=O)N1CCC(Nc2nc(N)c(C(=O)c3c(F)cccc3F)s2)CC1 | -19% | – |
